We go through two compounds from US9885703B2, “Evaluation method and screening method for sphingosine-1-phosphate 1 (S1P1) receptor agonists” (MEIJI SEIKA PHARMA CO., LTD., priority 2013, dated 2018).

Read-outs that look alike come from different tables or passages of the source.

Series [1] has as its target T1, S1P1 receptor coupled to Gαi2 (Homo sapiens, UniProt P21453).
T1 construct: expressed in transfected cells; host or cells: HEK 293T cells
Kind of series: Gα subtype-specific S1P1 receptor agonist activity (BRET, NPL 7), HEK 293T cells co-expressing S1P1 receptor, Gαi2, Gγ2 and Gβ1. The class given is cell-based. The note with it: Gαi2 expressed. The text has this: (§1) In the present invention, an agonist activity specific to a Gαi subtype can be measured, for example, according to the method described in the present Example 1 (2) (the method described in NPL 7). To be more specific, by allowing cells to express an S1P1 receptor and a particular Gα subtype together with Gγ2 and Gβ1, an agonist activity can be measured on the basis of a difference in percentage between the Gα protein and the Gβγ protein caused by an S1P1 receptor agonist.
(§2) Next, the Gα protein subtype-specific S1P1 receptor agonist activities were evaluated according to the method described in NPL 7. Note that the expression conditions followed the section of “Supplementary Methods” in NPL 7, and the measurement conditions followed the section of “Bioluminescence resonance energy transfer measurement.”
(§3) First, HEK 293T cells were allowed to co-express an S1P1 receptor, a particular Gα subtype (Gαi1, Gαi2, or Gαi3), Gγ2, and Gβ1. Then, on the basis of a difference in percentage between the Gα protein and the Gβγ protein caused by the endogenous agonist S1P, the agonist activity was measured.
Background: In BRET a luciferase serves as donor, and the signal depends on an acceptor being close.

Series [2] can be described thus: Blood concentration in the guinea pig cardiotoxicity model. The following applies: male, whole blood, intravenous, guinea pigs, 0.01 mg/kg infusion for 10 minutes. The class given is in vivo. The protocol:
(§4) In this model, the guinea pigs used were highly responsive to an S1P1 receptor, and further the model was capable of reliable detection of S1P1 receptor-dependent cardiotoxicity under anesthesia. An electrocardiograph and a pacing device were attached to the male guinea pigs whose breathings were artificially controlled under anesthesia, and the drugs were administered.
In addition, the blood concentrations of BAF312 and the compound B when the administrations were completed were respectively 17 nM and 91 nM. The blood concentrations after 1 hour were respectively <4 nM and 27 nM.

For series [3], the target named is T2, S1P1 receptor coupled to Gαi1 (Homo sapiens, UniProt P21453).
T2 construct: expressed in transfected cells; host or cells: HEK 293T cells
T2 sequence (P21453 whole entry): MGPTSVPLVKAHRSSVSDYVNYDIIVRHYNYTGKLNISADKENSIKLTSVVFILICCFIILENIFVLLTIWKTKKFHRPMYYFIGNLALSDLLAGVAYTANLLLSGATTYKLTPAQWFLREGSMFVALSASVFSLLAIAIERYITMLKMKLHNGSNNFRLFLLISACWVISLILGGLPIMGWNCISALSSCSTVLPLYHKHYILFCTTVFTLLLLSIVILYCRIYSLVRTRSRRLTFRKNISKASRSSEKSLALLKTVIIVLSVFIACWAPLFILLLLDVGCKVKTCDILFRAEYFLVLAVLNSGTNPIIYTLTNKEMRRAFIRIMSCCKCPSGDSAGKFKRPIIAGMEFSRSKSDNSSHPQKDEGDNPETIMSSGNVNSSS
T2 sequence (P63096 2-354 partner limits assumed): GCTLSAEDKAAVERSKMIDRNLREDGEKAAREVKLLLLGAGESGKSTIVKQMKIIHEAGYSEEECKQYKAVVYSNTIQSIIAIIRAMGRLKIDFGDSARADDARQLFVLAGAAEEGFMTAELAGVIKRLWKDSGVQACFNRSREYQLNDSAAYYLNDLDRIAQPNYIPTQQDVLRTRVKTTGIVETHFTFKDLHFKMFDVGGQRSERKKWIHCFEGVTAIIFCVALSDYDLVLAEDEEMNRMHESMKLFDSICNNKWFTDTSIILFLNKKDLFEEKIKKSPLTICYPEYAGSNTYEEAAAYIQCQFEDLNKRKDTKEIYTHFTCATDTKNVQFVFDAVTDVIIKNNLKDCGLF
T2 sequence (P62873 2-340 partner limits assumed): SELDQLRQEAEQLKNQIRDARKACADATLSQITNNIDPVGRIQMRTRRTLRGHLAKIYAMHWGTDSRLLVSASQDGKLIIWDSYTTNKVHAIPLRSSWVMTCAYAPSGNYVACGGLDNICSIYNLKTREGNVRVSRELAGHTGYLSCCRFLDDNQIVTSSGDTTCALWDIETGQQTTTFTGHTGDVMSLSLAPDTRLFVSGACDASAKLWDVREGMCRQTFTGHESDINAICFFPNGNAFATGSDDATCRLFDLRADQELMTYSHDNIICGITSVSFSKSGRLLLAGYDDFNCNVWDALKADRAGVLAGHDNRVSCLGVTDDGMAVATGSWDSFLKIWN
T2 sequence (P59768 2-68 partner limits assumed): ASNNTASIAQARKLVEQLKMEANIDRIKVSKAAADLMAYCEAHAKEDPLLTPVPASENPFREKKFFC
Kind of series: Gα subtype-specific S1P1 receptor agonist activity (BRET, NPL 7), HEK 293T cells co-expressing S1P1 receptor, Gαi1, Gγ2 and Gβ1. It counts as cell-based. The note with it: Gαi1 expressed.
Text: as §1, §2, §3

The next series addresses T3, S1P1 receptor (Homo sapiens, UniProt P21453).
T3 construct: expressed in transfected cells; host or cells: CHO cells
The experiment in a line: General S1P1 receptor agonist activity, CHO cells expressing S1P1 receptor (method of Experimental Example 1 of PTL 1). The class given is cell-based. The note with it: method of PTL 1. An excerpt: As a general method for evaluating an S1P1 receptor agonist activity, there has been known a method which uses CHO cells expressing a S1P1 receptor, and the like to measure an agonist activity on the basis of binding to the receptor and a signal transduction activity through the binding (PTL 1).

Series [4] deals with number of lymphocytic cells in blood. Kind of series: Efficacy evaluation: number of lymphocytic cells in blood after oral administration. It counts as in vivo. The following applies: male SD rats; for ED50: Rattus norvegicus. The protocol: BAF312 or the compound B was orally administered to male SD rats at different doses. After 3, 6, and 24 hours, and the number of lymphocytic cells in blood was counted using a blood cell counter.

A further series has as its system complete AV block. Kind of series: Cardiotoxicity evaluation: AV block in guinea pigs under anesthesia. The class given is in vivo, male guinea pigs. The following applies: anesthetized guinea pigs, 0.01 mg/kg by infusion for 10 minutes. As for the experimental part: as §4
Series [5] has as its target T4, S1P1 receptor coupled to Gαi3 (Homo sapiens, UniProt P21453).
T4 construct: expressed in transfected cells; host or cells: HEK 293T cells
Kind of series: Gα subtype-specific S1P1 receptor agonist activity (BRET, NPL 7), HEK 293T cells co-expressing S1P1 receptor, Gαi3, Gγ2 and Gβ1. It counts as cell-based. The note with it: Gαi3 expressed.
Text: as §1, §2, §3

The target in another series is S1P receptor. The note with it: reported generally, varies with evaluation method; read-out: 50% activation concentration (EC50 value) as an agonist activity against an S1P receptor; cited from earlier work.

T4 sequence (P21453 whole entry): as the sequence (P21453 whole entry) above
T4 sequence (P08754 2-354 partner limits assumed): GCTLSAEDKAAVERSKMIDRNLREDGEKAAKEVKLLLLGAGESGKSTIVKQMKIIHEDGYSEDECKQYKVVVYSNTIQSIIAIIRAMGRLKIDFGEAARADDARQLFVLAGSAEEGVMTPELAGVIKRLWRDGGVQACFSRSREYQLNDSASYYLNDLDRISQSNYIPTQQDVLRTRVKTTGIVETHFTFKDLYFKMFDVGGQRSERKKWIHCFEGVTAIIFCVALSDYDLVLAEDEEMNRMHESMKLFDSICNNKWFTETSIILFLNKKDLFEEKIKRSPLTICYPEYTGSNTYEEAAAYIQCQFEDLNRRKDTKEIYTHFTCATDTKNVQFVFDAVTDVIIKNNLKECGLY
T4 sequence (P62873 2-340 partner limits assumed): as the sequence (P62873 2-340 partner limits assumed) above
T4 sequence (P59768 2-68 partner limits assumed): as the sequence (P59768 2-68 partner limits assumed) above
T3 sequence (P21453 whole entry): as the sequence (P21453 whole entry) above
T1 sequence (P21453 whole entry): as above
T1 sequence (P04899 2-355 partner limits assumed): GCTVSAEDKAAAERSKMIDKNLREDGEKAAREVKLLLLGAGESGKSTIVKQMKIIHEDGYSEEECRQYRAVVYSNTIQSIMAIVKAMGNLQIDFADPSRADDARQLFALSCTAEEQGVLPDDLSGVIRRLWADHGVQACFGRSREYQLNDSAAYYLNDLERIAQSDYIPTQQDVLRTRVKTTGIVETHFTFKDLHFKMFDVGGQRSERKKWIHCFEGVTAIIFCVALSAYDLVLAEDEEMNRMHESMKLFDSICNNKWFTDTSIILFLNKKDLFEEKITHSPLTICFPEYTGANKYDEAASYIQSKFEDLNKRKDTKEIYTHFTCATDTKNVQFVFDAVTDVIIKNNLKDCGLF
T1 sequence (P62873 2-340 partner limits assumed): as the sequence (P62873 2-340 partner limits assumed) above
T1 sequence (P59768 2-68 partner limits assumed): as the sequence (P59768 2-68 partner limits assumed) above

The term ED50 denotes the dose at which the effect has come halfway, by size or by number of responders. As for `CCc1cc(/C(C)=N/OCc2ccc(C3CCCCC3)c(C(F)(F)F)c2)ccc1CN1CC(C(=O)O)C1` [BAF312, Siponimod], the EC50 in series [1] came to 81 nM; in series [3], 122 nM; on S1P1 receptor it was 3 nM; in series [5], 27 nM. Besides, the concentration at 1 h in series [2] (after 1 hour) is under 4 nM. In series [2] (end of administration, read-out: blood concentration when the administration was completed), the concentration at 10 min was determined as 17 nM. Also, the ED50 was 0.1 mg/kg in series [4] (6 hours, read-out: dose for suppressing the number of lymphocytic cells by 50% (ED50) after 6 hours) and over 1 mg/kg in series [4] (24 hours, read-out: dose for suppressing the number of lymphocytic cells by 50% (ED50) after 24 hours). Further, in series [4] (24 hours, calculated), the “effective blood concentration after 24 hours” value is given as over 208 nM. Moreover, the “expression of complete AV block (cases)” value in the series with complete AV block (four cases) is reported as “four out of four cases”. The “continuation of complete AV block” value in the series with complete AV block (until 1 hour) is listed as “continued in all the cases until 1 hour elapsed”.

Take `CCCCCCCCCCCCC/C=C/[C@@H](O)[C@@H](N)COP(=O)(O)O` [Compound S1P, sphingosine-1-phosphate]: the EC50 in series [1] is 14.6 nM; in series [3] it was 261 nM; at S1P1 receptor, 6.4 nM; on S1P receptor, about 10 nM; in series [5], 8.4 nM.
